Source: patent publication US6514997B2, “Antipicornaviral compounds and compositions, their pharmaceutical uses, and materials for their synthesis” (Agouron Pharmaceuticals, Inc., priority 1999, dated 2003)
pEC50: −log10 of the molar value. Where two headings read alike, the source gives them in different places.

How the values were obtained:
[1] = target: T1, Recombinant rhinovirus 3C protease, serotype 14 (Human rhinovirus 14, UniProt P03303); assay: Inhibition of rhinovirus 3C protease (FRET assay, kobs/[I]), serotype 14; type: biochemical
T1 construct: Recombinant rhinovirus 3C proteases; made in house
T1 sequence (P03303 1538-1719): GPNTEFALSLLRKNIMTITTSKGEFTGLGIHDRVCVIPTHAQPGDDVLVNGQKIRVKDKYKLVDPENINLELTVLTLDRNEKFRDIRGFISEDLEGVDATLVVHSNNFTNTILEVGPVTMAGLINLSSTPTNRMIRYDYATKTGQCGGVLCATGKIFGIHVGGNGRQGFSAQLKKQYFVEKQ
Outline: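 Enzyme-start FRET assay with ~1 μM DABCYL/EDANS peptide substrate and 50-100 nM recombinant protease in 50 mM tris pH 7.6, 1 mM EDTA, 2% DMSO. Cleavage followed as fluorescence increase; kobs/[I] derived from progress curves.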

[2] = test system: coxsackievirus B5 (CVB5); assay: Anticoxsackieviral cell culture assay (EC50), CVB5; type: cell-based; details: Enterovirus B
[3] = test system: strains of human rhinovirus (HRV); assay: Antirhinoviral H1-HeLa cell culture assay (XTT cell protection, EC50), other HRV strains; type: cell-based, human rhinovirus in H1-HeLa cells; details: read-out: EC50
Outline: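 H1-HeLa cells infected, or mock-infected, were incubated with compounds for two days. Cell protection measured by XTT/PMS formazan absorbance at 450/650 nm; TI taken as CC50 divided by EC50.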

[4] = Cytotoxicity (CC50) in uninfected MRC-5 cells, XTT dye reduction; type: cell-based, human; details: human, MRC-5 cells, uninfected (mock-infected)
Outline: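 MRC-5 cells in MEM with 10% FBS, infected at m.o.i. 0.003 or 0.004 or mock-infected, seeded 1×10^4 cells/well with compound for four days. Protection and cytotoxicity read by XTT/PMS formazan at 450/650 nm. TI = CC50/EC50.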

[5] = test system: Coxsackievirus type B3 (CVB3); assay: Anticoxsackieviral cell culture assay (XTT, EC50), CVB3; type: cell-based, coxsackievirus B3 in H1-HeLa cells
Outline: (§1)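 H1-HeLa cells infected with CAV-21 (m.o.i. 0.025) or CVB3 (m.o.i. 0.075), plated at 4×10^4 cells/well with test compound. Cell protection read by XTT/PMS formazan at 450/650 nm after 1 day (CVB3) or 2 days (CAV-21). TI = CC50/EC50.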

[6] = test system: coxsackievirus B2 (CVB2); assay: Anticoxsackieviral cell culture assay (EC50), CVB2; type: cell-based; details: Enterovirus B
[7] = test system: echovirus 9 (ECHO-9); assay: Anti-echoviral cell culture assay (EC50), ECHO-9; type: cell-based; details: Enterovirus B
[8] = test system: Coxsackievirus type A-21 (CAV-21); assay: Anticoxsackieviral cell culture assay (XTT, EC50), CAV-21; type: cell-based, coxsackievirus A-21 in H1-HeLa cells; details: Coxsackievirus
Outline: as §1

[9] = Human rhinovirus sp., H1-HeLa, HRV-Hanks
[10] = Human rhinovirus sp., HRV3, H1-HeLa, HRV-3
[11] = Human rhinovirus sp., HRV9, H1-HeLa, HRV-9
[12] = Human rhinovirus sp., HRV10, H1-HeLa, HRV-10
[13] = Human rhinovirus sp., HRV11, H1-HeLa, HRV-11
[14] = Human rhinovirus sp., HRV13, H1-HeLa, HRV-13
[15] = Human rhinovirus sp., HRV16, H1-HeLa, HRV-16
[16] = Human rhinovirus sp., HRV19, H1-HeLa, HRV-19
[17] = Human rhinovirus sp., HRV25, H1-HeLa, HRV-25
[18] = Human rhinovirus sp., HRV39, H1-HeLa, HRV-39
[19] = Human rhinovirus sp., HRV78, H1-HeLa, HRV-78
[20] = Human rhinovirus sp., HRV87, H1-HeLa, HRV-87
[21] = pH 7.6, HRV-14, read-out: kobs/[I] (3C protease inhibition activity)

`C#CC[C@@H](C(=O)N[C@H](/C=C/C(=O)OCC)C[C@@H]1CCNC1=O)n1cccc(NC(=O)c2cc(C)on2)c1=O` [Compound 31, trans-(2′S,3″″S,4S)-4-(2′-{3″-[(5′″-Methyl-isoxazole-3′″-carbonyl)amino]-2″-oxo-2″H-pyridin-1″-yl}pent-4′-ynoyl-amino)-5-(2″″-oxopyrrolidin-3″″-yl)pent-2-enoic Acid Ethyl Ester] showed a kinact/KI ([1]; pH 7.6, read-out: kobs/[I] (3C protease inhibition activity)) of 223000 M⁻¹ s⁻¹, a pEC50 [2] of 7.33 and a pEC50 ([3]; H1-HeLa, HRV-1A) of 7.44. It also gave a pEC50 ([3]; H1-HeLa, HRV-2) of 7.89, a pEC50 ([3]; H1-HeLa, HRV-23) of 7.38 and a pEC50 [3, 9] of 7.31. The pEC50 [3, 10] was 7.68, the pEC50 [3, 11] was 7.36 and the pEC50 [3, 12] was 7.32. The pEC50 [3, 13] was 8.30, the pEC50 [3, 14] was 7.22 and the pEC50 [3, 15] was 7.42. It also gave a pEC50 [3, 16] of 7.30, a pEC50 [3, 17] of 7.06 and a pEC50 [3, 18] of 7.37. The pEC50 [3, 19] was 7.21, the pEC50 [3, 20] was 7.68 and the CC50 at 4 days ([4]; line of ECHO-6) was greater than 10000 nM. For the same compound, the pEC50 [5] was 7.62, the pEC50 [6] was 7.24 and the pEC50 [7] was 7.92. It also gave a pEC50 [8] of 6.79.
With `CCOC(=O)/C=C/[C@H](C[C@@H]1CCNC1=O)NC(=O)[C@H](Cc1ccc(F)c(F)c1)n1cccc(NC(=O)c2cc(C)on2)c1=O` [Compound 33, trans-(2′S,3′″″S,4S)-4-(3′-(3″,4″-Difluorophenyl)-2′-{3′″-[(5″″-methylisoxazole-3″″-carbonyl)amino]-2′″-oxo-2′″H-pyridin-1′″-yl}propionylamino)-5-(2′″″-oxopyrrolidin-3′″″-yl)pent-2-enoic Acid Ethyl Ester] the kinact/KI [1, 21] was 1.8e+06 M⁻¹ s⁻¹, the pEC50 [2] was 7.60 and the pEC50 ([3]; H1-HeLa, HRV-2) was 8.52. It also gave a pEC50 ([3]; H1-HeLa, HRV-23) of 8.52, a pEC50 [3, 9] of 8.30 and a pEC50 [3, 10] of 8.52. The pEC50 [3, 11] was 7.82, the pEC50 [3, 13] was 8.52 and the pEC50 [3, 14] was 7.85. The pEC50 [3, 15] was 8.22, the pEC50 [3, 16] was 8.40 and the pEC50 [3, 17] was 7.55. For the same compound, the pEC50 [3, 18] was 8.40, the pEC50 [3, 19] was 8.30 and the pEC50 [3, 20] was 8.30. For the same compound, the CC50 at 4 days ([4]; line of ECHO-11) was greater than 10000 nM, the pEC50 [5] was 8.52 and the pEC50 [6] was 7.82. For the same compound, the pEC50 [7] was 8.52 and the pEC50 [8] was 8.40.
`C#CC[C@@H](C(=O)N[C@H](/C=C/C(=O)OC(C)(C)C)C[C@@H]1CCNC1=O)n1cccc(NC(=O)c2cc(C)on2)c1=O` [Compound 41, trans-(2′S,3′″″S,4S)-4-[2′-(3″-{[1′″-(5″″-Methylisoxazol-3″″-yl)methanoyl]amino}-2′″-oxo-2′″H-pyridin-1′″-yl)pent-4″-ynoylamino]-5-(2′″″-oxopyrrolidin-3′″″-yl)pent-2-enoic Acid tert-Butyl Ester] showed a kinact/KI [1, 21] of 60500 M⁻¹ s⁻¹, a pEC50 [2] of 6.70 and a pEC50 ([3]; H1-HeLa, HRV-2) of 6.81. It also gave a pEC50 [3, 10] of 7.27, a pEC50 [3, 11] of 6.25 and a pEC50 [3, 15] of 6.38. It also gave a pEC50 [3, 17] of 6.08, a pEC50 [3, 18] of 6.35 and a pEC50 [3, 20] of 7.22. The CC50 at 4 days ([4]; line of ECHO-11) was greater than 10000 nM, the pEC50 [5] was 6.93 and the pEC50 [6] was 6.67. It also gave a pEC50 [7] of 6.97 and a pEC50 [8] of 6.23.
In the case of `C#CC[C@@H](C(=O)N[C@H](/C=C/C(=O)OC1CCC1)C[C@@H]1CCNC1=O)n1cccc(NC(=O)c2cc(C)on2)c1=O` [Compound 53, trans-(2′S,3′″″S,4S)-4-[2′-(3″-{[1′″-(5″″-Methylisoxazol-3″″-yl)methanoyl]amino}-2′″-oxo-2′″H-pyridin-1′″-yl)pent-4″-ynoylamino]-5-(2′″″-oxopyrrolidin-3′″″-yl)pent-2-enoic Acid Cyclobutyl Ester], the kinact/KI [1, 21] was 207000 M⁻¹ s⁻¹, the pEC50 [2] was 6.80 and the pEC50 ([3]; H1-HeLa, HRV-1A) was 6.89. It also gave a pEC50 ([3]; H1-HeLa, HRV-2) of 7.11, a pEC50 ([3]; H1-HeLa, HRV-23) of 7.35 and a pEC50 [3, 9] of 6.86. For the same compound, the pEC50 [3, 10] was 7.36, the pEC50 [3, 11] was 6.88 and the pEC50 [3, 12] was 7.43. The pEC50 [3, 13] was 7.70, the pEC50 [3, 14] was 6.80 and the pEC50 [3, 15] was 6.99. It also gave a pEC50 [3, 16] of 7.28, a pEC50 [3, 17] of 7.18 and a pEC50 [3, 18] of 6.90. For the same compound, the pEC50 [3, 19] was 7.40, the CC50 at 4 days ([4]; line of ECHO-9) was greater than 10000 nM and the pEC50 [5] was 6.81. It also gave a pEC50 [6] of 6.81, a pEC50 [7] of 7.59 and a pEC50 [8] of 6.32.
